Experimental data from patent US8173813B2, “Quinolone and tetrahydroquinolone and related compounds having NOS inhibitory activity” (NeurAxon, Inc., priority 2007, dated 2012).
Where two headings read alike, the source gives them in different places.

Experiments:
Type in all cases: biochemical
[1] = target: Recombinant human inducible NOS (iNOS) (Homo sapiens, UniProt P35228); assay: Human iNOS enzyme assay, radiometric
[2] = target: Nitric oxide synthase (endothelial, human recombinant) eNOS (Homo sapiens, UniProt P29474); assay: Human eNOS enzyme assay ([3H]L-arginine to [3H]L-citrulline)
Chain of Nitric oxide synthase (endothelial, human recombinant) eNOS (P29474 2-1203): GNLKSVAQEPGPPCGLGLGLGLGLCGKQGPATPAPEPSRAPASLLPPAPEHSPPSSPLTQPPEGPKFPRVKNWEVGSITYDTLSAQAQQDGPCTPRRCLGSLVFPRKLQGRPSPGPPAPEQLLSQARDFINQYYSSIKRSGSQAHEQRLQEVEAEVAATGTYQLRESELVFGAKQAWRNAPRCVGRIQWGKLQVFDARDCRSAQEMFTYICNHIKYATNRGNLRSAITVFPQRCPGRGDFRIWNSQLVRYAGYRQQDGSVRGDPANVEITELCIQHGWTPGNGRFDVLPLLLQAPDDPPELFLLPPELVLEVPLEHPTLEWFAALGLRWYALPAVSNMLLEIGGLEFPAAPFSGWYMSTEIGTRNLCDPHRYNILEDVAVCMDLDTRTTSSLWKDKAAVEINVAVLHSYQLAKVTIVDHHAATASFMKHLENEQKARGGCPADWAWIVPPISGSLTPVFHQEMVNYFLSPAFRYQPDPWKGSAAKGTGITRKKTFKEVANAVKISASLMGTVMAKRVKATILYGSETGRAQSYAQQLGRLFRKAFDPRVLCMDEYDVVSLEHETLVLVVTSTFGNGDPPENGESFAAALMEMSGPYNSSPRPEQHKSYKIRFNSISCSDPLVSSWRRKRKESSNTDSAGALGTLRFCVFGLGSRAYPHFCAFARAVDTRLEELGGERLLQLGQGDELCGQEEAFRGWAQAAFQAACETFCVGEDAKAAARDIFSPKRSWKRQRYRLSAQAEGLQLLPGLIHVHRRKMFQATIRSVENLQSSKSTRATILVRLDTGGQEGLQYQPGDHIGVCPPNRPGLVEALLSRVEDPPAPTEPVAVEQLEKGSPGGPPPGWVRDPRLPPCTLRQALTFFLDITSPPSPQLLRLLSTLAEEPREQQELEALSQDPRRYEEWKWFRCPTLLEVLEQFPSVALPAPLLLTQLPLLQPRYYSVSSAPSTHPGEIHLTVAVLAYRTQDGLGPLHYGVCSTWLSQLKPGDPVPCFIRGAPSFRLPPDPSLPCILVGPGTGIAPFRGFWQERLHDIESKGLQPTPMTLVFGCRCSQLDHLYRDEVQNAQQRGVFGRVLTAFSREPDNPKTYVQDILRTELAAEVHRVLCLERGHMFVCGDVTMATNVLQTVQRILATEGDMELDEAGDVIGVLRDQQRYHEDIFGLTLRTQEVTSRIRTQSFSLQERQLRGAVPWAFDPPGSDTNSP

[3] = target: Nitric oxide synthase (neuronal, human recombinant) nNOS (Homo sapiens, UniProt P29475); assay: Human nNOS enzyme assay ([3H]L-arginine to [3H]L-citrulline)
Chain of Nitric oxide synthase (neuronal, human recombinant) nNOS (P29475 whole entry): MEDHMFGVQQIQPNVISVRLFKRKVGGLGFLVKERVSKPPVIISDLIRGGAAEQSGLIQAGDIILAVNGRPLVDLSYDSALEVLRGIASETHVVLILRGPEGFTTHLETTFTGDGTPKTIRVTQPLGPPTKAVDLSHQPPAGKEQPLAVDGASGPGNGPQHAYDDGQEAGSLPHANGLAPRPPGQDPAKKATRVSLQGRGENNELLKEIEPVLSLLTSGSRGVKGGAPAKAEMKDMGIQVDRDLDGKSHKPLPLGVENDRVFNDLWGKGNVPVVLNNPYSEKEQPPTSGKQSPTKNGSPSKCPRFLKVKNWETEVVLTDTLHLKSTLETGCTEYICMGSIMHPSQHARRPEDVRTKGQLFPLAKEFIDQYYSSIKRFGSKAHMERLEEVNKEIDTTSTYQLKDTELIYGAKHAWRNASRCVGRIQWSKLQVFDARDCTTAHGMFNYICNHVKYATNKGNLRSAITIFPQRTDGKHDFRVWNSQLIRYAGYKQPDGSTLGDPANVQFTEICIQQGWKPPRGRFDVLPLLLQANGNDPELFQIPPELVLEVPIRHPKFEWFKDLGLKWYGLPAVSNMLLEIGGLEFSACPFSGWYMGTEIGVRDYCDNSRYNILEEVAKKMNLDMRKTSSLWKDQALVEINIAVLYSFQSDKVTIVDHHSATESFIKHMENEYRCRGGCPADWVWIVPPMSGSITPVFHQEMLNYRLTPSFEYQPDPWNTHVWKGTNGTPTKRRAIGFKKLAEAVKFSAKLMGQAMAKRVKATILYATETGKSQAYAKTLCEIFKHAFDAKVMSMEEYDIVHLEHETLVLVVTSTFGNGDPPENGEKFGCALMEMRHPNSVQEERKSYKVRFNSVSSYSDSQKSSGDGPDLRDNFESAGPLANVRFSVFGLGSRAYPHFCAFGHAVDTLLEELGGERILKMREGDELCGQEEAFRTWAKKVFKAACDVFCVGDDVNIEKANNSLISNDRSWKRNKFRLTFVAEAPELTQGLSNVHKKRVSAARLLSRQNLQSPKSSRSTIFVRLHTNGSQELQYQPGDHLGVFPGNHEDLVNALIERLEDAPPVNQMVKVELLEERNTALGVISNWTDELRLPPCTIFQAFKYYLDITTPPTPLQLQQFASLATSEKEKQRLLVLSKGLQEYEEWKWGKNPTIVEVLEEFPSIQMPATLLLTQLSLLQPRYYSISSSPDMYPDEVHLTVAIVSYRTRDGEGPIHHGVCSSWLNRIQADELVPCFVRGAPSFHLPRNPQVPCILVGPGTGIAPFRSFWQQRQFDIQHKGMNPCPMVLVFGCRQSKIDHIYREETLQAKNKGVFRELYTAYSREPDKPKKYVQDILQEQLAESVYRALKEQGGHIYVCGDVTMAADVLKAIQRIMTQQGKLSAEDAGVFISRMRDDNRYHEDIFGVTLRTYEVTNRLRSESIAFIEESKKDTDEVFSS

[4] = human recombinant iNOS, values without parentheses, read-out: hiNOS IC50
[5] = human recombinant eNOS, values without parentheses, read-out: heNOS IC50
[6] = human recombinant nNOS, values without parentheses, read-out: hnNOS IC50
[7] = human enzymes, ratio of eNOS IC50 to nNOS IC50

Chain of Recombinant human inducible NOS (iNOS) (P35228 whole entry): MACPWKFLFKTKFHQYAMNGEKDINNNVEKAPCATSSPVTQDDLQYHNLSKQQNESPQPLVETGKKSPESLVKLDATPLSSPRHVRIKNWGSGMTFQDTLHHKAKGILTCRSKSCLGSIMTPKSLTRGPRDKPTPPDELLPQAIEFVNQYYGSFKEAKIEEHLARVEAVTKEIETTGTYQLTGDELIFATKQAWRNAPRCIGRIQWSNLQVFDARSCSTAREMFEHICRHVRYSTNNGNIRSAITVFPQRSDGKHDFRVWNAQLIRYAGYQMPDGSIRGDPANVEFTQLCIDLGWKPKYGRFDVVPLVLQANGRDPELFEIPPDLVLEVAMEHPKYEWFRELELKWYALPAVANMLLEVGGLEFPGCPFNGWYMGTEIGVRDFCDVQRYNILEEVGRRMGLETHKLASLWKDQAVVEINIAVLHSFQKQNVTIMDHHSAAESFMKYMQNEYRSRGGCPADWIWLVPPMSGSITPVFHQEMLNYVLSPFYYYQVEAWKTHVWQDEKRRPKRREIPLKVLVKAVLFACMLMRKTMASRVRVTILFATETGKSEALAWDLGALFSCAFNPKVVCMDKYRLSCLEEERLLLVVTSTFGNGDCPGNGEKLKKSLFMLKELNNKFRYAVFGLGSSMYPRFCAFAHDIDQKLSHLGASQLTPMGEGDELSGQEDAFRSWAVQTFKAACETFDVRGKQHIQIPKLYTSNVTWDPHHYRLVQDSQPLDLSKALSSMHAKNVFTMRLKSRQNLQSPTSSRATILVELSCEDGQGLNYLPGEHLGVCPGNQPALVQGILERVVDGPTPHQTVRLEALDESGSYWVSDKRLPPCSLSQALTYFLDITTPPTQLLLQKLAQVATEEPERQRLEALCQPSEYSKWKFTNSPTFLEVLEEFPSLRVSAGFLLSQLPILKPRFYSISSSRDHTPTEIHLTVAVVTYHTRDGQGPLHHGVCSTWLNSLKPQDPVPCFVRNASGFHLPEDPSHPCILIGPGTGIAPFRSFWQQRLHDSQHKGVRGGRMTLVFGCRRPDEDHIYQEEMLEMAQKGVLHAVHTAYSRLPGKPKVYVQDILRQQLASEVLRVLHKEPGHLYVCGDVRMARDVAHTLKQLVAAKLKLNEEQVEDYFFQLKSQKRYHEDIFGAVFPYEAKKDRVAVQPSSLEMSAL

`CCN(CC)CCN1C(=O)CCc2cc(NC(=N)c3cccs3)ccc21` [Example 2, N-(1-(2-(diethylamino)ethyl)-2-oxo-1,2,3,4-tetrahydroquinolin-6-yl)thiophene-2-carboximidamide] showed an IC50 [1, 4] of 22 µM, an IC50 ([2]; read-out: heNOS IC50) of 73.6 µM and an IC50 ([3]; read-out: hnNOS IC50) of 2.21 µM.

`N=C(Nc1ccc2c(c1)CCC(=O)N2CCCN1CCOCC1)c1cccs1` [Example 5, N-(1-(3-morpholinopropyl)-2-oxo-1,2,3,4-tetrahydroquinolin-6-yl)thiophene-2-carboximidamide] was tested, and the IC50 [2, 5] was 105 µM, the “Selectivity eNOS/nNOS” value [3] was 19.2 and the IC50 [3, 6] was 5.46 µM.

`N=C(Nc1ccc2c(c1)CCC(=O)N2CCN1CCCC1)c1cccs1` [Example 6, N-(2-oxo-1-(2-(pyrrolidin-1-yl)ethyl)-1,2,3,4-tetrahydroquinolin-6-yl)thiophene-2-carboximidamide] showed an IC50 [1, 4] greater than 100 µM, an IC50 ([2]; read-out: heNOS IC50) of 29.8 µM and an IC50 [3, 6] of 0.165 µM.

In the case of `CCN(CC)CCCN1C(=O)CCc2cc(NC(=N)c3cccs3)ccc21` [Example 7, N-(1-(3-(diethylamino)propyl)-2-oxo-1,2,3,4-tetrahydroquinolin-6-yl)thiophene-2-carboximidamide], the IC50 [1, 4] is reported as greater than 100 µM, the IC50 [2, 5] is reported as 13.9 µM and the “Selectivity eNOS/nNOS” value [3] is reported as 16. The IC50 [3, 6] was 0.869 µM.

In the case of `N=C(Nc1ccc2c(c1)CCC(=O)N2CCCN1CCCC1)c1cccs1` [Example 8, N-(1-(3-(pyrrolidin-1-yl)propyl)-2-oxo-1,2,3,4-tetrahydroquinolin-6-yl)thiophene-2-carboximidamide], the IC50 ([2]; read-out: heNOS IC50) is reported as 24.5 µM.

In the case of `N=C(Nc1ccc2c(c1)CCC(=O)N2CCCN1CCCCC1)c1cccs1` [Example 9, N-(1-(3-(piperidin-1-yl)propyl)-2-oxo-1,2,3,4-tetrahydroquinolin-6-yl)thiophene-2-carboximidamide], the IC50 [2, 5] is reported as 10.2 µM, the “Selectivity eNOS/nNOS” value [3, 7] is reported as 12.8 and the IC50 [3, 6] is reported as 0.798 µM.

In the case of `CN(C)CCCC1Cc2cc(NC(=N)c3cccs3)ccc2NC1=O.Cl.Cl` (stereo not drawn) [Example 10, N-(3-(3-(dimethylamino)propyl)-2-oxo-1,2,3,4-tetrahydroquinolin-6-yl)thiophene-2-carboximidamide dihydrochloride], the IC50 [1, 4] is reported as greater than 100 µM, the IC50 [2, 5] is reported as 10.8 µM and the “Selectivity eNOS/nNOS” value [3, 7] is reported as 54.5. The IC50 [3, 6] was 0.198 µM.

For `CN1CCCC1CCN1C(=O)CCc2cc(NC(=N)c3cccs3)ccc21` (stereo not drawn) [Example 13, N-(1-(2-(1-methylpyrrolidin-2-yl)ethyl)-2-oxo-1,2,3,4-tetrahydroquinolin-6-yl)thiophene-2-carboximidamide], the IC50 [2, 5] was 68.9 µM, the “Selectivity eNOS/nNOS” value [3, 7] was 62.6 and the IC50 [3, 6] was 1.1 µM.

`CC(CN1C(=O)CCc2cc(NC(=N)c3cccs3)ccc21)N1CCCC1` (stereo not drawn) [Example 15, N-(2-oxo-1-(2-(pyrrolidin-1-yl)propyl)-1,2,3,4-tetrahydroquinolin-6-yl)thiophene-2-carboximidamide] was tested, and the IC50 [1, 4] was greater than 100 µM, the IC50 [2, 5] was 52.6 µM and the “Selectivity eNOS/nNOS” value [3, 7] was 9.1. For the same compound, the IC50 [3, 6] was 5.8 µM.

`CC(CN1CCCc2cc(NC(=N)c3cccs3)ccc21)N1CCCC1` (stereo not drawn) [Example 16, N-(1-(2-(pyrrolidin-1-yl)propyl)-1,2,3,4-tetrahydroquinolin-6-yl)thiophene-2-carboximidamide] was tested, and the IC50 [1, 4] was 19.4 µM, the IC50 [2, 5] was 33.7 µM and the “Selectivity eNOS/nNOS” value [3, 7] was 48.1. It also gave an IC50 [3, 6] of 0.7 µM.

In the case of `CC1C(=O)N(C2CCN(C)CC2)c2ccc(NC(=N)c3cccs3)cc21` (stereo not drawn) [Example 17, N-(3-Methyl-1-(1-methylpiperidin-4-yl)-2-oxoindolin-5-yl)thiophene-2-carboximidamide], the IC50 ([1]; hiNOS IC50) is reported as 57 µM, the IC50 ([2]; heNOS IC50) is reported as 155 µM and the “Selectivity eNOS/nNOS” value [3] is reported as 31. For the same compound, the IC50 ([3]; hnNOS IC50) was 4.9 µM.

With `CN1CCC(N2CCCc3cc(NC(=N)c4cccs4)ccc32)CC1` [Example 18, N-(1-(1-methylpiperidin-4-yl)-1,2,3,4-tetrahydroquinolin-6-yl)thiophene-2-carboximidamide] the IC50 ([1]; hiNOS IC50) was greater than 100 µM, the IC50 ([2]; heNOS IC50) was 50 µM and the “Selectivity eNOS/nNOS” value [3] was 5.7. For the same compound, the IC50 ([3]; hnNOS IC50) was 8.8 µM.

`CN1CCC(N2C(=O)CCc3cc(NC(=N)c4cccs4)ccc32)CC1` [Example 22, N-(1-(1-Methylpiperidin-4-yl)-2-oxo-1,2,3,4-tetrahydroquinolin-6-yl)thiophene-2-carboximidamide] was tested, and the IC50 ([1]; hiNOS IC50) was greater than 100 µM, the IC50 ([2]; heNOS IC50) was 151 µM and the “Selectivity eNOS/nNOS” value [3] was 87.8. For the same compound, the IC50 ([3]; hnNOS IC50) was 1.72 µM.

With `CN(C)CCN1C(=O)CCCc2cc(NC(=N)c3cccs3)ccc21` [Example 25, N-(1-(2-(Dimethylamino)ethyl)-2-oxo-2,3,4,5-tetrahydro-1H-benzo[b]azepin-7-yl)thiophene-2-carboximidamide] the IC50 [1, 4] was greater than 100 µM, the IC50 [2, 5] was 151 µM and the “Selectivity eNOS/nNOS” value [3, 7] was 12.3. The IC50 [3, 6] was 12.3 µM.

For `N=C(Nc1ccc2c(c1)CCCC(=O)N2CCN1CCCC1)c1cccs1` [Example 26, N-(2-Oxo-1-(2-(pyrrolidin-1-yl)ethyl)-2,3,4,5-tetrahydro-1H-benzo[b]azepin-7-yl)thiophene-2-carboximidamide], the IC50 [1, 4] was greater than 100 µM, the IC50 [2, 5] was 80.1 µM and the “Selectivity eNOS/nNOS” value [3, 7] was 8.1. The IC50 [3, 6] was 9.91 µM.

With `CN(C)CCN1C(=O)CCCc2cccc(NC(=N)c3cccs3)c21` [Example 33, N-(1-(2-(Dimethylamino)ethyl)-2-oxo-2,3,4,5-tetrahydro-1H-benzo[b]azepin-9-yl)thiophene-2-carboximidamide] the IC50 [1, 4] was greater than 100 µM, the IC50 [2, 5] was 193 µM and the “Selectivity eNOS/nNOS” value [3, 7] was 90. The IC50 [3, 6] was 2.2 µM.

With `CNCCN1C(=O)CCc2cc(NC(=N)c3cccs3)ccc21` [Example 34, N-(1-(2-(Methylamino)ethyl)-2-oxo-1,2,3,4-tetrahydroquinolin-6-yl)thiophene-2-carboximidamide] the IC50 [1, 4] was 1.28 µM, the IC50 [2, 5] was 45.1 µM and the “Selectivity eNOS/nNOS” value [3, 7] was 115. For the same compound, the IC50 [3, 6] was 0.39 µM.

With `CNCCN1CCCCc2cc(NC(=N)c3cccs3)ccc21` [Example 36, N-(1-(2-(Methylamino)ethyl)-2,3,4,5-tetrahydro-1H-benzo[b]azepin-7-yl)thiophene-2-carboximidamide] the IC50 ([2]; read-out: heNOS IC50) was 47.1 µM and the IC50 [3, 6] was 0.38 µM.

In the case of `CN1CCCC1CCN1CCCCc2cc(NC(=N)c3cccs3)ccc21` (stereo not drawn) [Example 45, N-(1-(2-(1-Methylpyrrolidin-2-yl)ethyl)-2,3,4,5-tetrahydro-1H-benzo[b]azepin-7-yl)thiophene-2-carboximidamide], the IC50 ([2]; read-out: heNOS IC50) is reported as 30.8 µM and the IC50 [3, 6] is reported as 1.8 µM.

Work on `CN1CCC(N2CCCCc3cc(NC(=N)c4cccs4)ccc32)C1` (stereo not drawn) [Example 46, N-(1-(1-Methylpyrrolidin-3-yl)-2,3,4,5-tetrahydro-1H-benzo[b]azepin-7-yl)thiophene-2-carboximidamide] yielded an IC50 ([2]; read-out: heNOS IC50) of 60.5 µM and an IC50 ([3]; read-out: hnNOS IC50) of 0.08 µM.

For `N=C(Nc1ccc2c(c1)CCN2C1CCNC1)c1cccs1` (stereo not drawn) [Example 49, N-(1-(Pyrrolidin-3-yl)indolin-5-yl)thiophene-2-carboximidamide], the IC50 [2, 5] was 5.45 µM and the IC50 [3, 6] was 0.08 µM.

`CN1CCC(N2CCc3cc(NC(=N)c4cccs4)ccc32)C1` (stereo not drawn) [Example 50, N-(1-(1-Methylpyrrolidin-3-yl)indolin-5-yl)thiophene-2-carboximidamide] showed an IC50 [2, 5] of 21.2 µM and an IC50 [3, 6] of 0.43 µM.

In the case of `CCN(C)CCN1CCCc2cc(NC(=N)c3cccs3)ccc21` [Example 51, N-(1-(2-(ethyl(methyl)amino)ethyl)-1,2,3,4-tetrahydroquinolin-6-yl)thiophene-2-carboximidamide], the IC50 ([2]; read-out: heNOS IC50) is reported as 33.3 µM, the “Selectivity eNOS/nNOS” value [3] is reported as 370 and the IC50 [3, 6] is reported as 0.09 µM.

In the case of `CNCCN1CCCc2cc(NC(=N)c3cccs3)cc(F)c21.Cl.Cl` [Example 52, N-(8-fluoro-1-(2-(methylamino)ethyl)-1,2,3,4-tetrahydroquinolin-6-yl)thiophene-2-carboximidamide dihydrochloride], the IC50 [2, 5] is reported as 13.5 µM, the “Selectivity eNOS/nNOS” value [3, 7] is reported as 45 and the IC50 [3, 6] is reported as 0.3 µM.

With `CCN(CC)CCN1CCCc2cc(NC(=N)c3cccs3)ccc21` [Example 53, N-(1-(2-(diethylamino)ethyl)-1,2,3,4-tetrahydroquinolin-6-yl)thiophene-2-carboximidamide] the IC50 [3, 6] was 0.25 µM.

Compound `CNCCCN1CCCc2cc(NC(=N)c3cccs3)ccc21` [Example 63, N-(1-(3-(methylamino)propyl)-2,3,4-tetrahydroquinolin-6-yl)thiophene-2-carboximidamide] has an IC50 ([2]; read-out: heNOS IC50) of 22.5 µM and an IC50 [3, 6] of 0.235 µM.

For `N=C(Nc1ccc2c(c1)CCCN2CCN1CCOCC1)c1cccs1` [Example 64, N-(1-(2-morpholinoethyl)-1,2,3,4-tetrahydroquinolin-6-yl)thiophene-2-carboximidamide], the IC50 [2, 5] was 82.5 µM, the “Selectivity eNOS/nNOS” value [3, 7] was 121 and the IC50 [3, 6] was 0.68 µM.

With `N=C(Nc1ccc2c(c1)CCN2CCN1CCCC1)c1cccs1` [Example 67, N-(1-(2-(Pyrrolidin-1-yl)ethyl)indolin-5-yl)thiophene-2-carboximidamide] the IC50 [2, 5] was 26.9 µM, the “Selectivity eNOS/nNOS” value [3, 7] was 292 and the IC50 [3, 6] was 0.092 µM.

In the case of `CN(C)CCN1CCc2cc(NC(=N)c3cccs3)ccc21` [Example 68, N-(1-(2-(Dimethylamino)ethyl)indolin-5-yl)thiophene-2-carboximidamide], the IC50 [2, 5] is reported as 12.9 µM, the “Selectivity eNOS/nNOS” value [3, 7] is reported as 316 and the IC50 [3, 6] is reported as 0.041 µM.

In the case of `CN(CCO)CCCN1CCCc2cc(NC(=N)c3cccs3)ccc21` [Example 69, N-(1-(3-((2-Hydroxyethyl)(methyl)amino)propyl)-1,2,3,4-tetrahydroquinolin-6-yl)thiophene-2-carboximidamide], the IC50 [2, 5] is reported as 39.9 µM, the “Selectivity eNOS/nNOS” value [3, 7] is reported as 511 and the IC50 [3, 6] is reported as 0.078 µM.

In the case of `CNC1CCC(N2CCc3cc(NC(=N)c4cccs4)ccc32)CC1` (stereo not drawn) [Example 70, N-(1-(4-(Methylamino)cyclohexyl)indolin-5-yl)thiophene-2-carboximidamide], the IC50 [2, 5] is reported as 17.9 µM, the “Selectivity eNOS/nNOS” value [3, 7] is reported as 86.5 and the IC50 [3, 6] is reported as 0.21 µM.

With `CNC1CCC(N2CCc3cc(NC(=N)c4cccs4)ccc32)CC1` (stereo not drawn) [Example 71, N-(1-(4-(Methylamino)cyclohexyl)indolin-5-yl)thiophene-2-carboximidamide] the IC50 [2, 5] was 34.1 µM and the IC50 [3, 6] was 0.105 µM.
